Test results reported in patent US9708370B2, “Azapeptides as CD36 binding compounds” (VALORISATION-RECHERCHE, LIMITED PARTNERSHIP, priority 2007, dated 2017).
pIC50: −log10 of the molar value. Starred links: 1 amine or outer side, 2 acyl side, 3 side chain; linkers in the order of their positions; H or OH if unused. Non-standard residues stand in square brackets, D forms with d. Residues, ends and D or L forms follow the SMILES beside them. azaTyr = O=C(N(Cc1ccc(O)cc1)N[*:1])[*:2]

Key:
[1] = molecular target: human GHS-R1a (Homo sapiens (Human), UniProt Q92847); experiment: GHS-R1a binding assay, competition with 125I-ghrelin on membranes of LLC-PK1 cells expressing human GHS-R1a
Sequence of human GHS-R1a (Q92847 whole entry): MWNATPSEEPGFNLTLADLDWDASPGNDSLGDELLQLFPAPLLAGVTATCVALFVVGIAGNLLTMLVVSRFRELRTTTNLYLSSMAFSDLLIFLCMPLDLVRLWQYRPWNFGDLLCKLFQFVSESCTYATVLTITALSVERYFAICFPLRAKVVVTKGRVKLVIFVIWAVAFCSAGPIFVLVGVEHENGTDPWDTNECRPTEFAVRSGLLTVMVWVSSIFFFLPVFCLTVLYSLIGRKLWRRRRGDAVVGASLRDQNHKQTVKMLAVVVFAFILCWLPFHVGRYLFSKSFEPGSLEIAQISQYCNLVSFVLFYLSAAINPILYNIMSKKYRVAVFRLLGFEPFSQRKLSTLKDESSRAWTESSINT

[2] = test system: laser injury induced choroidal neovascularisation; experiment: Inhibition of choroidal neovascularisation in vivo, laser injury model; design: species or system mice
Excerpt: The standard model of choroidal neovascularisation is the laser injury induced neovascularisation (47). In this model, which is applicable to rodents and primates, a laser beam is used to disrupt the RPE and the Bruchs membrane that separates the choroidal vasculature from the subretinal space. The following local inflammatory reaction in deep retina and choroid leads to a localized subretinal neovascularisation in a similar manner as that observed in AMD. This local neovascularisation can be quantified on flatmounts of RPE/choroid/sclera. The antiangiogenic effect of DBG178 on subretinal neovascularisation was tested by injecting intravitreally at effective concentration of 10^−7 to 10^−6 M within the eye and compared to that of intravitreal injection of saline used as a control.
Ten-week old C56/Bl6+/+ and CD36 null mice of C57Bl/6 background were anesthetized by intramuscular injection of ketamine (50 mg/kg) and xylazine (10 mg/kg). Pupils were fully dilated with 1% tropicamide. Coverslips positioned on the mouse cornea were used as a contact glass. Laser-coagulations were performed 1 to 2 disc diameters away from the papillae using an Argon laser (532 nm) mounted on a slit lamp (400 mW, 50 ms and 50 μm). […] The RPE/choroids were radially incised, flatmounted and viewed using a fluorescence microscope (BX51; Olympus). CNV were measured on photographs using Scion image analysis software.

pIC50 ([1]; Table 4, LLCPK-1 membranes overexpressing GHS-R1a, radioiodinated (1-28) rat ghrelin as tracer, read-out: EC50 (text: IC50 values from competition curves in GHS-R1a radioreceptor assay)): 4.80 | binding affinity for GHS-R1a receptor in words ([1]; compared with GHRP-6): reducing the binding affinity
Compound: C[C@H](NC(=O)[C@@H](Cc1c[nH]c2ccccc12)NC(=O)[C@@H](N)Cc1cnc[nH]1)C(=O)NN(Cc1ccc(O)cc1)C(=O)N[C@H](Cc1ccccc1)C(=O)N[C@@H](CCCCN)C(N)=O [DBG178p, His-D-Trp-Ala-azaTyr-D-Phe-Lys-NH2] (H-H[dW]A[azaTyr][dF]K-NH2)
inhibition of the neovascular response ([2]; C57BL/6 mice, intravitreal injection 3 and 7 days after laser injury, 10^−7 and 10^−6 M within the eye): more than 50% | effect on the neovascular response ([2]; eye of CD36 null mice, intravitreal injection): no effect
